In the experiment the target is T1, Human FXRα Ligand Binding Domain (FXRα LBD) (Homo sapiens, UniProt Q96RI1).
T1 construct: polyhistidine (N); made in house; host or cells: E. coli BL21 (DE3), pRSET-A vector
T1 sequence (Q96RI1 222-472 isoform Q96RI1-2): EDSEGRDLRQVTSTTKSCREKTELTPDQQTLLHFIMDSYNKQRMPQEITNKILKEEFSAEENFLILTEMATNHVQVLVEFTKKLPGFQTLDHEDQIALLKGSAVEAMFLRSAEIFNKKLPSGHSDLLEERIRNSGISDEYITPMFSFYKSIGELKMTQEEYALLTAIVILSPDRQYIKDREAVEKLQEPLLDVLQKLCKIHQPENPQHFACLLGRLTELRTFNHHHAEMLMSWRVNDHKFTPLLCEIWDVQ
Nature of the experiment: FXR Affinity Binding Assay: ligand mediated cofactor peptide (SRC-1 LCD2, 676-700) interaction, time resolved fluorescence. The conditions noted are these: FXRα LBD-APC / europium labeled SRC-1 peptide, TRF signal, at least 2 hours at room temperature; read-out: Activity (pEC50) (converted). As for the experimental part: Determination of a ligand mediated cofactor peptide interaction to quantify ligand binding to the nuclear receptor Farnasoid X Receptor (FXR). The method measures the ability of putative ligands to modulate the interaction between the purified bacterial expressed FXRα (LBD) and a synthetic biotinylated peptide based on residues 676-700 of SRC-1(LCD2, 676-700). […] Detection of the associated complex is measured by time resolved fluorescence (TRF). The purified LBD of FXR is labeled with biotin then mixed with stoichiometric amounts of APC labeled streptavidin (Molecular Probes). The biotinylated peptide is then mixed with a ½ stoichiometric amount of europium labeled streptavidin (Wallac Inc). Each is then blocked with a 5 fold excess of biotin and allowed to equilibrate for 15 min. Equimolar amounts of receptor and peptide are mixed together and allowed to equilibrate for at least 30 min prior to the addition to either a variable or constant concentrations of the sample for which the affinity is to be determined. After equilibration, the time-resolved fluorescent signal is quantitated using a fluorescent plate reader. The affinity of the test compound is estimated from a plot of fluorescence versus concentration of test compound added.
Ligands that promote the complex formation induce a concentration-dependent increase in time-resolved fluorescent signal.
Human FXRα Ligand Binding Domain (FXRα LBD) was expressed in E.coli strain BL21 (DE3) as an amino-terminal polyhistidine tagged fusion protein. Expression was under the control of an IPTG inducible T7 promoter. DNA encoding this recombinant protein was subcloned into the pRSET-A expression vector (Invitrogen). The coding sequence of Human FXRα LBD was derived from Genbank accession number U 68233 (amino acids 222 to 472).
Routinely, 30-40 g cell paste (equivalent to 2-3 liters of the fermentation batch) was resuspended in 200-250 mL TBS, pH 7.2 (25mM Tris, 150 mM NaCl). Cells were lysed by passing 3 times through a French Press and cell debris was removed by centrifugation (30 minutes, 20,000 g, 4° C.). The cleared supernatant was filtered through course pre-filters, and TBS, pH 7.2, containing 500 mM imidazole was added to obtain a final imidazole concentration of 50 mM. This lysate was loaded onto a column (6×8 cm) packed with Sepharose [Ni^++ charged]Chelation resin (Pharmacia) and pre-equilibrated with TBS pH 7.21 50 mM imidazole. After washing to baseline absorbance with equilibration buffer, the column was washed with one column volume of TBS pH 7.2 containing 90 mM imidazole. FXRαLBD was eluted directly with 365 mM imidazole. Column fractions were pooled and dialyzed against TBS, pH 7.2, containing 0.5 mM EDTA and 5 mM DTT. The dialyzed protein sample was concentrated using Centri-prep 10 K (Amicon) and subjected to size exclusion, using a column (3×90 cm) packed with Sepharose S-75 resin (Pharmacia) pre-equilibrated with TBS, pH 7.2, containing 0.5 mM EDTA and 5 mM DTT.
Purified FXRα LBD was desalted/buffer exchanged using PD-10 gel filtration columns into PBS [100 mM NaPhosphate, pH 7.2, 150 mM NaCl]. FXRα LBD was diluted to approximately 10 μM in PBS and five-fold molar excess of NHS-LC-Biotin (Pierce) was added in a minimal volume of PBS. This solution was incubated with gentle mixing for 30 minutes at room temperature. The biotinylation modification reaction was stopped by the addition of 2000× molar excess of Tris-HCl, pH 8. The modified FXRα LBD was dialyzed against 4 buffer changes, each of at least 50 volumes, PBS containing 5 mM DTT, 2 mM EDTA and 2% sucrose.

The record followed here is patent publication US7319109B2, “Farnesoid X receptor agonists” (Smith Kline Beecham Corporation, priority 2002, dated 2008).

For `Cc1cc(OCc2c(-c3c(Cl)cccc3Cl)noc2C(C)C)ccc1N(C)Cc1cccc(C(=O)O)c1` [Example 1, 3-{[(4-{[3-(2,6-Dichlorophenyl)-5-isopropylisoxazol-4-yl]methoxy}-2-methylphenyl)(methyl)amino]methyl}benzoic acid], the EC50 is under 100 nM.
Under `COC(=O)c1ccc(CN(C)c2ccc(OCc3c(-c4c(Cl)cccc4Cl)noc3C(C)C)cc2C)cc1` [Example 2, Methyl 4-[(4-{[3-(2,6-dichlorophenyl)-5-isopropyl-4-isoxazolyl]methoxy}-2-dimethylanilino)methyl]benzoate] stands under 100 nM; under `CC(C)c1onc(-c2c(Cl)cccc2Cl)c1COc1ccc(NCc2cccc(C(=O)O)c2)c(Cl)c1` [Example 3, 3-{[(2-Chloro-4-{[3-(2,6-dichlorophenyl)-5-isopropylisoxazol-4-yl]methoxy}phenyl)amino]methyl}benzoic acid], 102 to 1000 nM.
Then `Cc1cc(OCc2c(-c3c(Cl)cccc3Cl)noc2C(C)C)ccc1N(C)Cc1ccc(C(=O)O)o1` [Example 4, 5-[(4-{[3-(2,6-Dichlorophenyl)-5-isopropyl-4-isoxazolyl]methoxy}-2-dimethylanilino)methyl]-2-furoic acid], with 102 to 1000 nM; and `Cc1cc(OCc2c(-c3c(Cl)cccc3Cl)noc2C(C)C)ccc1N(C)Cc1ccc(C(=O)O)cc1` [Example 5, 4-[(4-{[3-(2,6-Dichlorophenyl)-5-isopropyl-4-isoxazolyl]methoxy}-2-dimethylanilino)methyl]benzoic acid], with under 100 nM.
Under `COC(=O)c1ccoc1CN(C)c1ccc(OCc2c(-c3c(Cl)cccc3Cl)noc2C(C)C)cc1C` [Example 6, Methyl 2-[(4-{[3-(2,6-dichlorophenyl)-5-isopropyl-4-isoxazolyl]methoxy}-2-dimethylanilino)methyl]-3-furoate] stands 102 to 1000 nM; under `Cc1cc(OCc2c(-c3c(Cl)cccc3Cl)noc2C(C)C)ccc1N(C)Cc1ccc2nonc2c1` [Example 7, N-(2,1,3-Benzoxadiazol-5-ylmethyl)-4-{[3-(2,6-dichlorophenyl)-5-isopropyl-4-isoxazolyl]methoxy}-N,2-dimethylaniline], 102 to 1000 nM; under `Cc1cc(OCc2c(-c3c(Cl)cccc3Cl)noc2C(C)C)ccc1N(C)Cc1ccc(-c2csnn2)cc1` [Example 8, N-(4-{[3-(2,6-Dichlorophenyl)-5-isopropyl-4-isoxazolyl]methoxy}-2-methylphenyl)-N-methyl-N-[4-(1,2,3-thiadiazol-4-yl)benzyl]amine], 102 to 1000 nM.
Turning to `Cc1cc(OCc2c(-c3c(Cl)cccc3Cl)noc2C(C)C)ccc1N(C)Cc1ccc(C#N)cc1` [Example 9, 4-[(4-{[3-(2,6-Dichlorophenyl)-5-isopropyl-4-isoxazolyl]methoxy}-2-dimethylanilino)methyl]benzonitrile], the EC50 was 102 to 1000 nM.
As for `Cc1cc(OCc2c(-c3c(Cl)cccc3Cl)noc2C(C)C)ccc1N(C)Cc1occc1C(=O)O` [Example 10, 2-[(4-{[3-(2,6-Dichlorophenyl)-5-isopropyl-4-isoxazolyl]methoxy}-2-dimethylanilino)methyl]-3-furoic acid], the EC50 was 102 to 1000 nM.
Regarding `Cc1cc(OCc2c(-c3c(Cl)cccc3Cl)noc2C(C)C)ccc1N(C)Cc1cccc(CO)c1` [Example 11, {3-[(4-{[3-(2,6-Dichlorophenyl)-5-isopropyl-4-isoxazolyl]methoxy}-2-dimethylanilino)methyl]phenyl}methanol], the EC50 was under 100 nM.
For the compound `Cc1cc(OCc2c(-c3c(Cl)cccc3Cl)noc2C(C)C)ccc1N(C)Cc1ccc(CO)cc1` [Example 12, {4-[(4-{[3-(2,6-Dichlorophenyl)-5-isopropyl-4-isoxazolyl]methoxy}-2-dimethylanilino)methyl]phenyl}methanol], the EC50 was under 100 nM.
For the compound `CCc1onc(Cc2c(Cl)cccc2Cl)c1COc1ccc(N(C)Cc2cccc(C(=O)O)c2)c(C)c1` [Example 13, 3-[(4-{[3-(2,6-Dichlorobenzyl)-5-ethyl-4-isoxazolyl]methoxy}-2-dimethylanilino)methyl]benzoic acid], the EC50 was 102 to 1000 nM.
Then `Cc1cc(OCc2c(-c3c(Cl)cc(Cl)cc3Cl)noc2C(C)C)ccc1N(C)Cc1cccc(C(=O)O)c1` [Example 14, 3-{[(4-{[5-Isopropyl-3-(2,4,6-trichlorophenyl)isoxazol-4-yl]methoxy}-2-methylphenyl)-(methyl)amino]methyl}benzoic acid], with 102 to 1000 nM.
Under `Cc1cc(OCc2c(Cc3c(Cl)cccc3Cl)noc2C(C)C)ccc1N(C)Cc1cccc(C(=O)O)c1` [Example 15, 3-[(4-{[3-(2,6-Dichlorobenzyl)-5-isopropyl-4-isoxazolyl]methoxy}-2-dimethylanilino)methyl]benzoic acid] stands 102 to 1000 nM; under `Cc1cc(OCc2c(Cc3ccccc3Cl)noc2C(C)C)ccc1N(C)Cc1cccc(C(=O)O)c1` [Example 16, 3-{[(4-{[3-(2-Chlorobenzyl)-5-isopropylisoxazol-4-yl]methoxy}-2-methylphenyl)(methyl)-amino]methyl}benzoic acid], 102 to 1000 nM; under `Cc1cc(OCc2c(Cc3c(Cl)cccc3Cl)noc2C2CC2)ccc1N(C)Cc1cccc(C(=O)O)c1` [Example 17, 3-[(4-{[5-Cyclopropyl-3-(2,6-dichlorobenzyl)-4-isoxazolyl]methoxy}-2-dimethylanilino)methyl]benzoic acid], 102 to 1000 nM.
Then `Cc1cc(OCc2c(-c3ccccc3OC(F)(F)F)noc2C(C)C)ccc1N(C)Cc1ccc(C(=O)O)o1` [Example 18, 5-{[4-({5-Isopropyl-3-[2-(trifluoromethoxy)phenyl]-4-isoxazolyl}methoxy)-2-dimethylanilino]methyl}-2-furoic acid], with under 100 nM.
Take `Cc1cc(OCc2c(-c3ccccc3OC(F)(F)F)noc2C(C)C)ccc1N(C)Cc1ccc(C(=O)O)cc1` [Example 19, 4-{[4-({5-Isopropyl-3-[2-(trifluoromethoxy)phenyl]-4-isoxazolyl}methoxy)-2-dimethylanilino]methyl}benzoic acid]: the EC50 was under 100 nM.
Then `Cc1cc(OCc2c(-c3ccccc3OC(F)(F)F)noc2C(C)C)ccc1N(C)Cc1cccc(C(=O)O)c1` [Example 20, 3-{[4-({5-Isopropyl-3-[2-(trifluoromethoxy)phenyl]-4-isoxazolyl}methoxy)-2-dimethylanilino]methyl}benzoic acid], with under 100 nM; and `COC(=O)c1ccc(CN(C)c2ccc(OCc3c(-c4ccccc4OC(F)(F)F)noc3C(C)C)cc2C)o1` [Example 21, Methyl 5-{[4-({5-isopropyl-3-[2-(trifluoromethoxy)phenyl]-4-isoxazolyl}methoxy)-2-dimethylanilino]methyl}-2-furoate], with under 100 nM.
Then `COC(=O)c1ccc(CN(C)c2ccc(OCc3c(-c4ccccc4OC(F)(F)F)noc3C(C)C)cc2C)cc1` [Example 22, Methyl 4-{[4-({5-isopropyl-3-[2-(trifluoromethoxy)phenyl]-4-isoxazolyl}methoxy)-2-dimethylanilino]methyl}benzoate], with 102 to 1000 nM.
Then `CC(C)c1onc(-c2c(Cl)cccc2Cl)c1COc1ccc(NC(=O)c2ccc(C(=O)O)cc2)c(Cl)c1` [Example 23, 4-{[(2-Chloro-4-{[3-(2,6-dichlorophenyl)-5-isopropylisoxazol-4-yl]methoxy}phenyl)amino]carbonyl}benzoic acid], with 102 to 1000 nM.
